Reference: ChEMBL document CHEMBL4308841, “Synthesis, in vitro antiproliferative activity, and kinase inhibitory effects of pyrazole-containing diarylureas and diarylamides” (Eur J Med Chem, 2018)

What follows are compounds tested on MOLT-4 (assay: Growth inhibition of human MOLT4 cells assessed as cell growth at 10 uM incubated for 48 hrs by sulforhodamine B assay relative to control). Details: MOLT-4, 48 h, read-out: Activity.
Type: functional

SMILES | growth at 10 µM [%]
COc1cc(Cl)cc(-c2nn(-c3cccc(NC(=O)Nc4ccc(Cl)c(C(F)(F)F)c4)c3)cc2-c2ccncc2)c1 | -9.68

These compounds were tested on HOP-62 (assay: Growth inhibition of human HOP62 cells assessed as cell growth at 10 uM incubated for 48 hrs by sulforhodamine B assay relative to control). Details: HOP-62, 48 h, read-out: Activity.
Type: functional

SMILES | growth at 10 µM [%]
COc1cc(Cl)cc(-c2nn(-c3cccc(NC(=O)Nc4ccc(Cl)c(C(F)(F)F)c4)c3)cc2-c2ccncc2)c1 | 13.5

What follows are compounds tested on NCI-H226 (assay: Growth inhibition of human NCI-H226 cells assessed as cell growth at 10 uM incubated for 48 hrs by sulforhodamine B assay relative to control). Details: NCI-H226, 48 h, read-out: Activity.
Type: functional

SMILES | growth at 10 µM [%]
COc1cc(Cl)cc(-c2nn(-c3cccc(NC(=O)Nc4ccc(Cl)c(C(F)(F)F)c4)c3)cc2-c2ccncc2)c1 | -2.82

What follows are compounds tested on NCI-H460 (assay: Growth inhibition of human NCI-H460 cells assessed as cell growth at 10 uM incubated for 48 hrs by sulforhodamine B assay relative to control). Details: NCI-H460, 48 h, read-out: Activity.
Type: functional

SMILES | growth at 10 µM [%]
COc1cc(Cl)cc(-c2nn(-c3cccc(NC(=O)Nc4ccc(Cl)c(C(F)(F)F)c4)c3)cc2-c2ccncc2)c1 | 2.76

These compounds were tested on HCT-116 (assay: Growth inhibition of human HCT116 cells assessed as cell growth at 10 uM incubated for 48 hrs by sulforhodamine B assay relative to control). Details: HCT-116, 48 h, read-out: Activity.
Type: functional

SMILES | growth at 10 µM [%]
COc1cc(Cl)cc(-c2nn(-c3cccc(NC(=O)Nc4ccc(Cl)c(C(F)(F)F)c4)c3)cc2-c2ccncc2)c1 | 3.39

Each compound was assayed on LOX IMVI (assay: Growth inhibition of human LOXIMVI cells assessed as cell growth at 10 uM incubated for 48 hrs by sulforhodamine B assay relative to control). Details: read-out: Activity.
Type: functional

SMILES | growth at 10 µM [%]
COc1cc(Cl)cc(-c2nn(-c3cccc(NC(=O)Nc4ccc(Cl)c(C(F)(F)F)c4)c3)cc2-c2ccncc2)c1 | 4.81

What follows are compounds tested on MDA-MB-435 (assay: Growth inhibition of human MDA-MB-435 cells assessed as cell growth at 10 uM incubated for 48 hrs by sulforhodamine B assay relative to control). Details: MDA-MB-435, 48 h, read-out: Activity.
Type: functional

SMILES | growth at 10 µM [%]
COc1cc(Cl)cc(-c2nn(-c3cccc(NC(=O)Nc4ccc(Cl)c(C(F)(F)F)c4)c3)cc2-c2ccncc2)c1 | -16.8

What follows are compounds tested on UACC-257 (assay: Growth inhibition of human UACC257 cells assessed as cell growth at 10 uM incubated for 48 hrs by sulforhodamine B assay relative to control). Details: UACC-257, 48 h, read-out: Activity.
Type: functional

SMILES | growth at 10 µM [%]
COc1cc(Cl)cc(-c2nn(-c3cccc(NC(=O)Nc4ccc(Cl)c(C(F)(F)F)c4)c3)cc2-c2ccncc2)c1 | -25.9

What follows are compounds tested on UACC-62 (assay: Growth inhibition of human UACC62 cells assessed as cell growth at 10 uM incubated for 48 hrs by sulforhodamine B assay relative to control). Details: UACC-62, 48 h, read-out: Activity.
Type: functional

SMILES | growth at 10 µM [%]
COc1cc(Cl)cc(-c2nn(-c3cccc(NC(=O)Nc4ccc(Cl)c(C(F)(F)F)c4)c3)cc2-c2ccncc2)c1 | 6.62

These compounds were tested on IGROV-1 (assay: Growth inhibition of human IGROV1 cells assessed as cell growth at 10 uM incubated for 48 hrs by sulforhodamine B assay relative to control). Details: IGROV-1, 48 h, read-out: Activity.
Type: functional

SMILES | growth at 10 µM [%]
COc1cc(Cl)cc(-c2nn(-c3cccc(NC(=O)Nc4ccc(Cl)c(C(F)(F)F)c4)c3)cc2-c2ccncc2)c1 | 30.2

The compounds below were run on OVCAR-3 (assay: Growth inhibition of human OVCAR3 cells assessed as cell growth at 10 uM incubated for 48 hrs by sulforhodamine B assay relative to control). Details: OVCAR-3, 48 h, read-out: Activity.
Type: functional

SMILES | growth at 10 µM [%]
COc1cc(Cl)cc(-c2nn(-c3cccc(NC(=O)Nc4ccc(Cl)c(C(F)(F)F)c4)c3)cc2-c2ccncc2)c1 | -22.6

Each compound was assayed on NCI/ADR-RES (assay: Growth inhibition of human NCI/ADR-RES cells assessed as cell growth at 10 uM incubated for 48 hrs by sulforhodamine B assay relative to control). Details: read-out: Activity.
Type: functional

SMILES | growth at 10 µM [%]
COc1cc(Cl)cc(-c2nn(-c3cccc(NC(=O)Nc4ccc(Cl)c(C(F)(F)F)c4)c3)cc2-c2ccncc2)c1 | 6.07

These compounds were tested on SK-OV-3 (assay: Growth inhibition of human SKOV3 cells assessed as cell growth at 10 uM incubated for 48 hrs by sulforhodamine B assay relative to control). Details: SK-OV-3, 48 h, read-out: Activity.
Type: functional

SMILES | growth at 10 µM [%]
COc1cc(Cl)cc(-c2nn(-c3cccc(NC(=O)Nc4ccc(Cl)c(C(F)(F)F)c4)c3)cc2-c2ccncc2)c1 | 11.9

Each compound was assayed on 786-0 (assay: Growth inhibition of human 786-0 cells assessed as cell growth at 10 uM incubated for 48 hrs by sulforhodamine B assay relative to control). Details: 786-0, 48 h, read-out: Activity.
Type: functional

SMILES | growth at 10 µM [%]
COc1cc(Cl)cc(-c2nn(-c3cccc(NC(=O)Nc4ccc(Cl)c(C(F)(F)F)c4)c3)cc2-c2ccncc2)c1 | -4.76

What follows are compounds tested on ACHN (assay: Growth inhibition of human ACHN cells assessed as cell growth at 10 uM incubated for 48 hrs by sulforhodamine B assay relative to control). Details: read-out: Activity.
Type: functional

SMILES | growth at 10 µM [%]
COc1cc(Cl)cc(-c2nn(-c3cccc(NC(=O)Nc4ccc(Cl)c(C(F)(F)F)c4)c3)cc2-c2ccncc2)c1 | 8.78

What follows are compounds tested on CAKI-1 (assay: Growth inhibition of human Caki1 cells assessed as cell growth at 10 uM incubated for 48 hrs by sulforhodamine B assay relative to control). Details: CAKI-1, 48 h, read-out: Activity.
Type: functional

SMILES | growth at 10 µM [%]
COc1cc(Cl)cc(-c2nn(-c3cccc(NC(=O)Nc4ccc(Cl)c(C(F)(F)F)c4)c3)cc2-c2ccncc2)c1 | 9.38

The compounds below were run on RXF 393 (assay: Growth inhibition of human RXF393 cells assessed as cell growth at 10 uM incubated for 48 hrs by sulforhodamine B assay relative to control). Details: RXF 393, 48 h, read-out: Activity.
Type: functional

SMILES | growth at 10 µM [%]
COc1cc(Cl)cc(-c2nn(-c3cccc(NC(=O)Nc4ccc(Cl)c(C(F)(F)F)c4)c3)cc2-c2ccncc2)c1 | -29.9

These compounds were tested on SN12C (assay: Growth inhibition of human SN12C cells assessed as cell growth at 10 uM incubated for 48 hrs by sulforhodamine B assay relative to control). Details: read-out: Activity.
Type: functional

SMILES | growth at 10 µM [%]
COc1cc(Cl)cc(-c2nn(-c3cccc(NC(=O)Nc4ccc(Cl)c(C(F)(F)F)c4)c3)cc2-c2ccncc2)c1 | 13.8

What follows are compounds tested on UO-31 (assay: Growth inhibition of human UO31 cells assessed as cell growth at 10 uM incubated for 48 hrs by sulforhodamine B assay relative to control). Details: UO-31, 48 h, read-out: Activity.
Type: functional

SMILES | growth at 10 µM [%]
COc1cc(Cl)cc(-c2nn(-c3cccc(NC(=O)Nc4ccc(Cl)c(C(F)(F)F)c4)c3)cc2-c2ccncc2)c1 | 11.1
